{"source": "patent US8785430B2", "about": "“Compound that can inhibit UBC13-UEV interactions, pharmaceutical compositions and therapeutic uses” (Consejo Superior de Investigaciones Cientificas, priority 2006, dated 2014)", "key": {"UBC13-UEV1": {"molecular_target": "T1, UBC13-UEV1 (Homo sapiens, UniProt P61088)", "T1 construct": "GST (N); made in house; host or cells: Escherichia coli BL21", "T1 sequence (P61088 1-152)": "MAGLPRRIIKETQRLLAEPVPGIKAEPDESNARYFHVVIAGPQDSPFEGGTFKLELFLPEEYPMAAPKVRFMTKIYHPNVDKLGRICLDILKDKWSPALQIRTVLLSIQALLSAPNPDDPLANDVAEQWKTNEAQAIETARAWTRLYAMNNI", "assay": "In vitro free polyubiquitin chain formation assay", "type": "biochemical", "procedure": "As described in the Background, K63 type polyubiquitylation catalyzed by UBC13-UEV1 requires the interaction between both subunits of the heterodimer. […] In this assay, the formation of polyubiquitin chains in reactions containing 0.1 μM of E1 enzyme (Boston Biochem), 0.2 μM of UBC13, 0.2 μM of UEV1 (produced as described in Example 4), 117 μM of wild-type ubiquitin (Biomol UW8795) or mutated in all the lysines except the lysine in position 63 (ubiquitin K63) or in position 48 (ubiquitin K48; Boston Biochem), is allowed in a reaction buffer with 50 mM of Tris-HC at pH 7.6, 5 mM of MgCl2 and 0.5 mM of dithiothreitol. For the treatments with compound Ia (Varubin), UBC13 was pre-incubated for 10 minutes at room temperature with 100 μM of the compound before being added to the reaction. The reaction was initiated by means of adding 2 mM of ATP, and it was performed by means of incubating at 37° C. at different times, being stopped by means of adding Laemmli buffer (250 mM Tris-HCl, 10% SDS, 500 mM DTT, 0.5% bromophenol blue and 50% glycerol at pH 6.8) and boiling for 3 minutes. The samples were separated electrophoretically in polyacrylamide-SDS gels and transferred electrophoretically to PVDF membranes."}, "PC-3 cells": {"system": "PC-3 cells", "assay": "CyQuant cell count, sensitization to doxorubicin", "type": "cell-based, human", "details": "100 μM of compound Ia", "procedure": "The addition of 100 μM of Ia reduced the IC50 of doxorubicin to 0.1 μM for PC-3 cells and the IC50 of etoposide to 0.04 μM for HeLa cells. Therefore, the treatment with 100 μM of compound Ia causes a sensitization to the cytotoxic effects of doxorubicin of 5 times (PC-3 cells) and a sensitization to the cytotoxic effects of etoposide of 30 times (HeLa cells)."}, "PC-3.Sluc cells tumors": {"system": "PC-3.Sluc cells tumors", "assay": "PC-3.Sluc tumor xenografts in Balb/c nu/nu mice, light emission (RLUs)", "type": "in vivo", "procedure": "For the purpose of determining if Varubin has an in vivo antitumor activity, its effects in mice having tumors formed from PC-3 cells were analyzed. The experimental tumors were formed by means of the intramuscular inoculation of PC-3.Sluc cells. The latter are PC-3 prostate cells in which they have been integrated by means of transfecting plasmid pRC/CMV-luc, which expresses the firefly (Photinus pyralis) luciferase gene in mammalian cells q. The incubation of the PC-3.luc cells with D-luciferin, a luciferase substrate, produces light, which can be quantified in an absolute manner (number of photons) either by means of a luminometer or by means of detection with a CCD (charge-coupled device) camera. The latter process further allows representing in real time images of the location of the tumor cells in the inoculated animals, as well as the tumor size, since the intensity of the light (number of photons) emitted in the presence of luciferin is directly proportional to the number of PC-3.luc cells.\nFor these studies, 24 male Balb/c nu/nu mice (Charles River Laboratories) of an age of 6 weeks were used. These animals were kept in a pathogen-free environment at all times, having been kept in the animal housing facility for 1 week after they were received, before the experimental handling. After being anesthetized by means of an intraperitoneal (i.p.) injection of a mixture at equal parts of 6 mg/Kg of droperidol (Roche, Basel, Switzerland) and 12 mg/Kg of midazolam (Rovi S.A, Madrid, Spain), intramuscular (i.m.) injections were performed both in the right leg and in the left leg of each animal of 1×10^6 PC-3.Sluc cells, suspended in 100 μL of fetal bovine serum-free culture medium. The development of tumors in the inoculation sites was allowed for 2 weeks, after which a first measurement of photons emitted was made and a first capture of images with an ORCA-2BT Imaging System instrument (Hammamatsu Photonics) provided with a C4742-98-LWG-MOD model CCD camera (cooled at −80° C.) was done at a resolution of 512×512 pixels. […] Four minutes later, photons were detected and quantified for 5 minutes in the instrument described above. […] The quantification and the analysis of photons were performed with the aid of the image analysis program WASABI (Hamamatsu Photonics). […] For the graphic representations, the quantitative data (RLUs) were standardized, for each tumor, in relation to the RLUs of day 0 of treatment.\nThe 24 mice, having luminescent tumors in both legs, were included in 4 experimental groups: (1) Control group, in which an intravenous (i.v.) injection of 100 μL of phosphate buffered saline pH 7.4 (PBS) and 50 μL of intratumoral (i.t.) PBS was performed. […] The light emission of the tumors was analyzed throughout 56 days from the start of the treatment."}, "HeLa cells": {"system": "HeLa cells", "assay": "CyQuant cell count, sensitization to etoposide", "details": "HeLa cells, 100 μM of compound Ia"}}, "data": [{"smiles": "NC(=O)CN(CCc1ccccn1)C(=O)C1CC(=O)N(CCc2ccc(F)cc2)CC(=O)N1CCc1ccc(F)cc1", "note": "(centres unmarked) [Ia, N-aminocarbamoylmethyl-N-(2′-(2″pyridyl)ethyl)-1,4-bis[2′-(4″-fluorophenyl)ethyl]-3,7-dioxo-[1,4]diazepane-5-carboxamide]", "values": [{"measurement": "type of inhibition of the enzymatic activity of UBC13-UEV1", "setting": "UBC13-UEV1; 100 μM, slopes of the curves", "result": "competitive type"}, {"measurement": "inhibition of polyubiquitylation with ubiquitin K63 as substrate", "setting": "UBC13-UEV1; 100 μM, ubiquitin K63", "result": "efficiency similar to when the substrate is wild-type ubiquitin"}, {"measurement": "rate of generation of polyubiquitylated forms", "setting": "UBC13-UEV1; UBC13 pre-incubated with 100 μM, wild-type ubiquitin", "result": "lower rate of generation of polyubiquitylated forms"}, {"measurement": "sensitization to the cytotoxic effects of doxorubicin", "setting": "PC-3 cells", "result": 5, "unit": "times"}, {"measurement": "antitumor activity in tumors transplanted in nu/nu mice", "setting": "PC-3.Sluc cells tumors; 100 μM, intramuscular injection", "result": "shows antitumor activity"}, {"measurement": "tumor growth (RLUs)", "setting": "PC-3.Sluc cells tumors; Varubin alone, 100 μM in 50 μL of PBS, i.t./i.m., twice a week, 56 days", "result": "very limited growth"}, {"measurement": "tumor growth (RLUs), combined treatment", "setting": "PC-3.Sluc cells tumors; doxorubicin i.v. 5 mg/Kg once a week plus Varubin 100 μM twice a week, 56 days", "result": "did not grow significantly"}, {"measurement": "sensitization to the cytotoxic effects of etoposide", "setting": "HeLa cells", "result": 30, "unit": "times"}]}]}
